Test results: patent publication US5262421A, “Use of dicentrine and its derivatives for the treatment of hypertension, arrhythmia, thrombosis and atherosclerosis” (National Science Council, priority 1991, dated 1993)
“Also recorded” adds a separate entry of the source.

Key:
[1] = test system: isolated thoracic aorta of rats fed with high cholesterol and high fat diet; test: Contractile force of isolated thoracic aorta from rats fed high cholesterol and high fat diet; format: in vivo, rat; conditions: for contractile force: high cholesterol & fat diet, dicentrine 10 mg/kg, prazosin 5 mg/kg
[2] = test system: rat ventricular cells; test: Action potential of rat ventricular cells; format: cell-based; conditions: for Tp (time to peak) / APD50 (action potential duration at 50% repolarization) / AP amplitude (initial upstroke amplitude): 3 μM; for Tp (time to peak): control 5.0 ± 0.5 (dicentrine), 5.3 ± 0.5 (quinidine); for APD50 (action potential duration at 50% repolarization): control 59.9 ± 11.3 (dicentrine), 62.6 ± 3.9 (quinidine); for AP amplitude (initial upstroke amplitude): control 138.3 ± 2.6 (dicentrine), 135.2 ± 2.2 (quinidine)
Excerpt: (§1) In rat ventricular cells, the effects of dicentrine on action potential and membrane current were studied. […] However, calcium current was less affected.
The effects of dicentrine and quinidine on action potential were compared and studied in rat ventricular cells. […] In addition to the prolongation of APD50, a depression of initial upstroke amplitude from 138.3±2.6 mV to 125.5±4.5 mV and prolongation of the time to peak amplitude from 5.0±0.5 msec to 10.0±1.9 msec were observed.
Means ± S.E.M. are presented. *: P < 0.05 as compared with the
APD50 : action potential duration measured at 50% repolarization fro
Tp : time to peak measured from the start of depolarization to the
Concentration: dicentrine (3 μM), quinidine (3 μM).

[3] = test system: Thromboxane B2 formation in washed rabbit platelets; test: Thromboxane B2 formation in washed rabbit platelets (RIA); format: cell-based; conditions: for Thromboxane B2: dicentrine 150 μM
Method: (§2) At 6 min after the addition of inducer, indomethacin (50 μM) and EDTA (2 mM) were added to stop the reaction, and thromboxane B2 was assayed by RIA kits.
(§3) Means ± S.E.M. are presented. *: P < 0.05, **: P < 0.01, ***: P < 0.00
(§4) as compared with the respective control. Concentration: arachidonic acid
(§5) (100 μM), collagen (10 ug/ml), thrombin (0.1 U/ml), dicentrine (150

[4] = test system: conscious spontaneously hypertensive (SH) and normotensive (NT) rats; test: Mean arterial pressure in conscious spontaneously hypertensive (SH) and normotensive (NT) rats; format: in vivo, rat
[5] = test system: rats fed with high cholesterol and high fat diet; test: Blood cholesterol and triglyceride in rats fed high cholesterol and high fat diet; format: in vivo, rat; conditions: for Cholesterol / Triglyceride: high cholesterol & fat diet, dicentrine 10 mg/kg or prazosin 5 mg/kg, oral twice a day in last week; for Cholesterol: diet control 120 ± 7.1, normal diet 62 ± 4.5; for Triglyceride: diet control 305 ± 11.1, normal diet 84 ± 5.4
[6] = test system: α1-adrenoceptor (rat thoracic aortae); test: Schild analysis of α1-adrenoceptor antagonism: norepinephrine- and phenylephrine-induced contraction of rat thoracic aortae
Excerpt: Results are given as means ± S.E.M. or the mean with 95% confidence

[7] = test system: rat thoracic aorta; test: Aortic contraction induced by other agonists; conditions: in words
[8] = test system: washed rabbit platelets; test: Aggregation of washed rabbit platelets induced by arachidonic acid, collagen, thrombin, ADP or PAF; format: cell-based; conditions: for Aggregation (%): dicentrine 150 μM
Excerpt: These fractions inhibited the aggregation of washed rabbit platelets induced by ADP, collagen, arachidonic acid and platelet-activating factor (PAF). […] Furthermore, the action potential of rat ventricular cells was prolonged by these fractions. After rechromatography on a silica gel column with n-hexane-ethylacetate (2:1), four potent compounds, dicentrine, N-methylnandigerine, N-methylovigenine and dicentrinone were obtained.
500 g of dried, ground root material Lindera oldhamu (megaphylla) Hemsl was extracted with 95% ethanol, and the extract was concentrated in vacuo and fractionated into ethanol- and ethylacetate-soluble fractions. The ethylacetate-soluble fraction was then applied to a column of silica gel and eight fractions were obtained.
as §3, §4
(100 μM), collagen (10 μg/ml), norepinephrine (NE, 3 μM), each
as §2, §5

[9] = test system: rat thoracic aortae; test: Norepinephrine-induced contraction of rat thoracic aortae (phasic and tonic); conditions: in words
[10] = test system: anesthetized rats; test: Systemic hemodynamic parameters of pentobarbital-anesthetized rats; format: in vivo, rat; conditions: for Blood flow: before 7 ± 4; for total peripheral resistance: dicentrine 1.0 mg/kg, prazosin 0.1 mg/kg
[11] = test system: guinea-pig trachea; test: Contraction and relaxation of guinea-pig trachea; conditions: in words
[12] = test system: membrane currents of rat ventricular cells; test: Voltage clamp, membrane currents in rat ventricular cells; format: cell-based
Excerpt: as §1

[13] = oral twice a day (10 mg/kg) in the last week, in words
[14] = pentobarbital-anesthetized rats, in words

COc1cc2c(cc1OC)-c1c3c(cc4c1[C@H](C2)N(C)CC4)OCO3 [dicentrine]
contractile force of aorta ([1]; cholesterol-triglyceride-treated rats, in words): restored the contractile force of cholesterol-triglyceride-treated rat aortae back to normal values
maximal contractile force of isolated thoracic aorta [1, 13]: restored to normal range
contractile force ([1]; phenylephrine 3 × 10^-6 M): 0.75 ± 0.12 g
contractile force ([1]; phenylephrine 3 × 10^-7 M): 0.55 ± 0.07 g
contractile force ([1]; phenylephrine 3 × 10^-8 M): 0.22 ± 0.05 g
contractile force ([1]; phenylephrine 10^-6 M): 0.67 ± 0.11 g
contractile force ([1]; phenylephrine 10^-7 M): 0.55 ± 0.07 g
Tp (time to peak) [2]: 10.0 ± 1.9 ms
Tp (time to peak) ([2]; listed as Dicentrine): 10.0 ± 1.9 ms
APD50 (action potential duration at 50% repolarization) [2]: 201.9 ± 28.7 ms
APD50 (action potential duration at 50% repolarization) ([2]; listed as Dicentrine): 201.9 ± 28.7 ms
AP amplitude (initial upstroke amplitude) [2]: 125.5±4.5 mV
AP amplitude (initial upstroke amplitude) ([2]; listed as Dicentrine): 125.5 ± 4.5 mV
action potential ([2]; stimulation frequency 0.1 Hz): prolonged
initial upstroke amplitude ([2]; stimulation frequency 0.1 Hz): reduced
time to peak ([2]; stimulation frequency 0.1 Hz): increased
Thromboxane formations ([3]; caused by arachidonic acid, collagen and thrombin, in words): all suppressed
Thromboxane B2 ([3]; inducer arachidonic acid 100 μM, control 445 ± 44): 19 ± 15 ng/10^8 platelets
Thromboxane B2 ([3]; inducer collagen 10 ug/ml, control 478 ± 93): 70 ± 5 ng/10^8 platelets
Thromboxane B2 ([3]; inducer thrombin 0.1 U/ml, control 131 ± 25): 44 ± 14 ng/10^8 platelets
mean arterial pressure ([4]; conscious SH and NT rats): dose-related decreases in mean arterial pressure which were of a greater magnitude in SH rats than in NT rats
duration of hypotensive effect ([4]; oral administration, conscious SH rats): over 15 hr
serum triglyceride level ([5]; cholesterol-triglyceride-rich diet, in words): decreased
Cholesterol [5]: 112 ± 4.6 mg/dL
Triglyceride [5]: 108 ± 4.3 mg/dL
blood cholesterol level [5, 13]: unchanged
triglyceride level [5, 13]: restored to normal levels
α1-adrenoceptor antagonism, relative potency ([6]; comparison with prazosin, yohimbine and phentolamine): less potent than prazosin; also recorded: much more potent than phentolamine or yohimbine
effects in denuded aortae ([6]; denuded aortae): still persisted
norepinephrine- or phenylephrine-induced vasoconstriction of rat aortae ([6]; in words): competitive antagonism
aortic contraction induced by U-46619, angiotensin II, high potassium or carbachol [7]: did not affect
aggregation of washed rabbit platelets ([8]; induced by arachidonic acid and collagen, in words): inhibited
Aggregation (%) ([8]; inducer arachidonic acid 100 μM, control 92 ± 1): 11 ± 7%
Aggregation (%) ([8]; inducer collagen 10 ug/ml, control 94 ± 1): 51 ± 7%
Aggregation (%) ([8]; inducer thrombin 0.1 U/ml, control 95 ± 2): 92 ± 2%
vasorelaxant activity in rat thoracic aorta [9]: most potent vasorelaxant
Blood flow ([10]; after dicentrine 1.0 mg/kg): 200 ± 27
CO ([10]; after dicentrine 1.0 mg/kg, before 21 ± 2): 25 ± 4 mL/min
MAP ([10]; after dicentrine 1.0 mg/kg, before 122 ± 5): 62 ± 5 mm Hg
HR ([10]; after dicentrine 1.0 mg/kg, before 353 ± 10): 348 ± 8 bpm
hypotensive activity after α1-adrenoceptor blockade ([10]; after α1-adrenoceptor blockade): completely abolished
mean arterial blood pressure ([10]; anesthetized rats, i.v. bolus 0.1-1.0 mg/kg): dose-related reduction
duration of reduction in mean arterial blood pressure ([10]; anesthetized rats, i.v. bolus 0.1-1.0 mg/kg, throughout observation period): ≥ 2 h
total peripheral resistance [10]: reduction
cardiac output (CO) [10, 14]: little or no change
heart rate (HR), or stroke volume (SV) [10, 14]: no change
mean arterial pressure (MAP) [10, 14]: decrease
contraction of guinea-pig trachea caused by histamine or carbachol [11]: slightly inhibited
β-adrenoceptor relaxation to isoprenaline in trachea [11]: not affected
calcium current [12]: less affected
fast sodium inward current [12]: inhibition
steady state outward current [12]: significant inhibition
transient outward current [12]: significant inhibition

COc1cc2nc(N3CCN(C(=O)c4ccco4)CC3)nc(N)c2cc1OC [prazosin, reference compound]
contractile force ([1]; phenylephrine 3 × 10^-6 M): 0.87 ± 0.12 g
contractile force ([1]; phenylephrine 3 × 10^-7 M): 0.70 ± 0.09 g
contractile force ([1]; phenylephrine 3 × 10^-8 M): 0.30 ± 0.05 g
contractile force ([1]; phenylephrine 10^-6 M): 0.80 ± 0.12 g
contractile force ([1]; phenylephrine 10^-7 M): 0.51 ± 0.08 g
Cholesterol [5]: 112 ± 3.9 mg/dL
Triglyceride [5]: 114 ± 9.2 mg/dL
Blood flow ([10]; after prazosin 0.1 mg/kg): 171 ± 14
CO ([10]; after prazosin 0.1 mg/kg, before 27 ± 3): 32 ± 3 mL/min
MAP ([10]; after prazosin 0.1 mg/kg, before 120 ± 4): 68 ± 6 mm Hg
HR ([10]; after prazosin 0.1 mg/kg, before 367 ± 9): 337 ± 10 bpm
total peripheral resistance [10]: reduction
cardiac output (CO) [10, 14]: little or no change
mean arterial pressure (MAP) [10, 14]: decrease

C=C[C@H]1C[N@@]2CC[C@H]1C[C@@H]2[C@@H](O)c1ccnc2ccc(OC)cc12 [quinidine, reference compound]
Tp (time to peak) [2]: 10.8 ± 2.4 ms
APD50 (action potential duration at 50% repolarization) [2]: 276.0 ± 18.6 ms
AP amplitude (initial upstroke amplitude) [2]: 121.2 ± 2.3 mV
